Data from ChEMBL document CHEMBL5465560, “Selectivity Literature for EUbOPEN Chemogenomic Library” (2024).

Legend:
[1] = molecular target: Fibroblast growth factor receptor 1 (Homo sapiens, UniProt P11362); assay: Selectivity interaction (Upstate Kinase Profiler service (Millipore)) EUB0000056c FGFR1; details: at 1 µM
[2] = molecular target: Fibroblast growth factor receptor 2 (Homo sapiens) (UniProt P21802); assay: Selectivity interaction (KinomeScan (DiscoverX)) EUB0000655a FGFR2; details: at 10 µM
[3] = molecular target: Maternal embryonic leucine zipper kinase (Homo sapiens) (UniProt Q14680); assay: Selectivity interaction (Kinase panel (DSF assay)) EUB0001559a MELK
[4] = molecular target: Tyrosine-protein kinase Fer (Homo sapiens) (UniProt P16591); assay: Selectivity interaction (ActivX KiNativ screen (kinase selectivity in THP-1 cell lysates)) EUB0000639a FER; assay type: subcellular; details: lysate, at 0.01 µM
[5] = molecular target: T1, Ephrin type-A receptor 1 (Homo sapiens) (UniProt P21709); assay: Selectivity interaction (KinomeScan (DiscoverX)) EUB0000618a EPHA1; details: at 10 µM
T1 sequence (whole entry): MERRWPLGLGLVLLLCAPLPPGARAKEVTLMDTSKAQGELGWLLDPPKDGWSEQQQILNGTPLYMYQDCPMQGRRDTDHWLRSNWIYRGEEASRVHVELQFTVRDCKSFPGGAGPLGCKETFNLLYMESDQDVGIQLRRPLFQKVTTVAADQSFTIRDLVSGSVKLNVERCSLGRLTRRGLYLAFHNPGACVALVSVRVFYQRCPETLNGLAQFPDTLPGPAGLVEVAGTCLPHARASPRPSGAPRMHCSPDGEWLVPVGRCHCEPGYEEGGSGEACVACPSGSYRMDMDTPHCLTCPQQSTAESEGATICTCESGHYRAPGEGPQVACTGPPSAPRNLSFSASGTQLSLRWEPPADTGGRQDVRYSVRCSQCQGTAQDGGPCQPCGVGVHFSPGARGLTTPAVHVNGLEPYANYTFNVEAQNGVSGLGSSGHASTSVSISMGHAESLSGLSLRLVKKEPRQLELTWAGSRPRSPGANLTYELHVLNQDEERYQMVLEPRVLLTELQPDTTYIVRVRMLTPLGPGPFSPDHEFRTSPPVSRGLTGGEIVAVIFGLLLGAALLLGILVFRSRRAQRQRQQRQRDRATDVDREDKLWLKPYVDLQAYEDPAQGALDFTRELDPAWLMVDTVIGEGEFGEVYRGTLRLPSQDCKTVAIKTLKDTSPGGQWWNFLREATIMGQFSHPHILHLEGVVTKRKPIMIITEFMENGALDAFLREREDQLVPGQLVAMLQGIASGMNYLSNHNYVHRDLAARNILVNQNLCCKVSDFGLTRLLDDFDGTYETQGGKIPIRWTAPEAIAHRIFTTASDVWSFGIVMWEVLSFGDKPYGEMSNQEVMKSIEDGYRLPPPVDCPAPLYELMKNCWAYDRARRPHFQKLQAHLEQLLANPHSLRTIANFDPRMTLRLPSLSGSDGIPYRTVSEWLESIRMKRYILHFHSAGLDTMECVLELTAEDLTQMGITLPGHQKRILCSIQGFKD

[6] = molecular target: T2, Mitogen-activated protein kinase 15 (Homo sapiens) (UniProt Q8TD08); assay: Selectivity interaction (Ambit KINOMEscan and KiNATiv profiling in Jurkat cells) EUB0000090b MAPK15; assay type: cell-based; details: at 1 µM
T2 sequence (whole entry): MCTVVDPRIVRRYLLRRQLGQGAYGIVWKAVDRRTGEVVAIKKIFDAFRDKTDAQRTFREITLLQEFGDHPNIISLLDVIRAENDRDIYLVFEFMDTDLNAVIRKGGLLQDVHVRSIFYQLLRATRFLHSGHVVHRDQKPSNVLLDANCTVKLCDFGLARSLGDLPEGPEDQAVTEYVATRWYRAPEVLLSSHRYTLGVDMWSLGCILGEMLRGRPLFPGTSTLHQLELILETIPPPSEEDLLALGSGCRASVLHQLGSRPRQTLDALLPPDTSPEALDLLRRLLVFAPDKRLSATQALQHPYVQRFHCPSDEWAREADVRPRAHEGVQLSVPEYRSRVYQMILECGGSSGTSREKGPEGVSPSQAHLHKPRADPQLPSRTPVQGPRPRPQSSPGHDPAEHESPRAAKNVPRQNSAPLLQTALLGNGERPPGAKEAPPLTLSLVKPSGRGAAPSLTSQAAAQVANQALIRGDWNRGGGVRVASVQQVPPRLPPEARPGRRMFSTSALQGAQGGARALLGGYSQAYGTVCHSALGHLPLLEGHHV

[7] = molecular target: Ribosomal protein S6 kinase alpha-3 (Homo sapiens, UniProt P51812); assay: Selectivity interaction (ActivX KiNativ screen (ex vivo kinase selectivity in human PBMCs)) EUB0001619a RPS6KA3; assay type: cell-based; details: PBMC, at 1 µM
[8] = molecular target: T3, Ephrin type-B receptor 2 (Homo sapiens) (UniProt P29323); assay: Selectivity interaction (KinomeScan (DiscoverX)) EUB0001619a EPHB2; details: at 1 µM
T3 sequence (whole entry): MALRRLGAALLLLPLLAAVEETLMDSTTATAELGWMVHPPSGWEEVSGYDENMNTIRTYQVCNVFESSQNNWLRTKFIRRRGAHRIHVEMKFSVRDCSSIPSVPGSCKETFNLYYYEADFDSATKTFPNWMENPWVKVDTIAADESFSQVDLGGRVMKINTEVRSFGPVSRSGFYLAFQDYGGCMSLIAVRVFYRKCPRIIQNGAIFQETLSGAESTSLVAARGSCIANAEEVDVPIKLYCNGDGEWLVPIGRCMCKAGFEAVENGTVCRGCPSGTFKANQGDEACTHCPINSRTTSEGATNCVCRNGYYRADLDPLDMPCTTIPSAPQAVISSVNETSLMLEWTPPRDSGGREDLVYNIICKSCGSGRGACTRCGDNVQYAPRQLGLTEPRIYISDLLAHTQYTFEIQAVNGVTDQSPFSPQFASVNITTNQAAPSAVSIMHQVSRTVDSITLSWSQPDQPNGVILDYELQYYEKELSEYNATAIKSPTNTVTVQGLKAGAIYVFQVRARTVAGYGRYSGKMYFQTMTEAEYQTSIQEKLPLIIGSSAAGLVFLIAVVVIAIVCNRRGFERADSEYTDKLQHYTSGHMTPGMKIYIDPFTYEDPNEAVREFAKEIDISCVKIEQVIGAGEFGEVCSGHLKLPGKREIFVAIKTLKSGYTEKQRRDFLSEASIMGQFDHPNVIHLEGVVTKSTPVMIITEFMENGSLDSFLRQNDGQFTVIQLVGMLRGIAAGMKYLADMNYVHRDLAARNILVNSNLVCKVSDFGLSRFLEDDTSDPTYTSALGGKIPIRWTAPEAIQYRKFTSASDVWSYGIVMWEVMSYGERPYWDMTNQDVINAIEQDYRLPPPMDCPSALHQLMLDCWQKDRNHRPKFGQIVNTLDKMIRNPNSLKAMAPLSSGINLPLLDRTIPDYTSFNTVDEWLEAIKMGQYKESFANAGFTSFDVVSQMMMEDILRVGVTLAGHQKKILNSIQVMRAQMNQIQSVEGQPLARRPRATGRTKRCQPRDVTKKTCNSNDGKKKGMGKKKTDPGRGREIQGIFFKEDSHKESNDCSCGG

Chain of Ribosomal protein S6 kinase alpha-3 (P51812 whole entry): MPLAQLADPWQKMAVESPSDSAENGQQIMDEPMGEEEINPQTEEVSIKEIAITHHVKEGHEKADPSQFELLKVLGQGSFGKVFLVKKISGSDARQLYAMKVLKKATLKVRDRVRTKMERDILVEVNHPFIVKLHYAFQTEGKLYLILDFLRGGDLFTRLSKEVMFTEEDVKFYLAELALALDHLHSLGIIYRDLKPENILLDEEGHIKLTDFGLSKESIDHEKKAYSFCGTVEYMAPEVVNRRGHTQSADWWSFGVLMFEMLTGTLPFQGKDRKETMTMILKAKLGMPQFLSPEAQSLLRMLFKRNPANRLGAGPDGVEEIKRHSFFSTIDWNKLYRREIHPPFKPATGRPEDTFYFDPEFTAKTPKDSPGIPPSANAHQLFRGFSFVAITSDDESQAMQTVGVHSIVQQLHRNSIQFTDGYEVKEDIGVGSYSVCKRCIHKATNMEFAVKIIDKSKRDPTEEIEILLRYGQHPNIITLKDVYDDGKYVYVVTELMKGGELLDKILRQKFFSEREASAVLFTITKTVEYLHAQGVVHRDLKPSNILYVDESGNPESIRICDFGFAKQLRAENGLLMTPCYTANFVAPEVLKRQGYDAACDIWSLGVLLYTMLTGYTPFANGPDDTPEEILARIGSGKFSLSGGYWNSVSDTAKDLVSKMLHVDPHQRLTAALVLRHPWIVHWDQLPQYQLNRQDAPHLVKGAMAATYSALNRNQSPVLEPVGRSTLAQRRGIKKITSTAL
Chain of Fibroblast growth factor receptor 2 (Homo sapiens) (P21802 22-821 limits assumed): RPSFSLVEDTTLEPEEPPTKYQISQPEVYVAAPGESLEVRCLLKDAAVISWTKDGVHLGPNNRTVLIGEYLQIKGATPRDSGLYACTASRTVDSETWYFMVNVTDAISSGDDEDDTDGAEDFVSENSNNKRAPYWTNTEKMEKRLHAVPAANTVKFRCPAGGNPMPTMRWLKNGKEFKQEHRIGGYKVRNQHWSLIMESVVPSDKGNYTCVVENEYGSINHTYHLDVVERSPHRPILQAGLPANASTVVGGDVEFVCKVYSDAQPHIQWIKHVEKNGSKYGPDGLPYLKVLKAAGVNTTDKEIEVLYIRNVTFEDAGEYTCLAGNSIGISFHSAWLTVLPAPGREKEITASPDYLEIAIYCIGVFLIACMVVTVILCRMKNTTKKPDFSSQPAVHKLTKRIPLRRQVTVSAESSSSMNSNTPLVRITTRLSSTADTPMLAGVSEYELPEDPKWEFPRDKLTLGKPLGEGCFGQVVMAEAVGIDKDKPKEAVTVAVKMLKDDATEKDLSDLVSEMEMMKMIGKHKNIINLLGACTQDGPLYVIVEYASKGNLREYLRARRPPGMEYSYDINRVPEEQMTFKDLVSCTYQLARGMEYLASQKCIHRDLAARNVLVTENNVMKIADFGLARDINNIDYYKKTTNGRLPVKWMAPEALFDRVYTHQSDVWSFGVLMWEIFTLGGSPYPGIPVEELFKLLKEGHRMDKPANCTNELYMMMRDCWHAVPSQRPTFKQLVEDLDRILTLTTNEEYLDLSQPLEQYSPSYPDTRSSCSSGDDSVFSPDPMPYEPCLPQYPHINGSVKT
Chain of Fibroblast growth factor receptor 1 (P11362 22-822 limits assumed): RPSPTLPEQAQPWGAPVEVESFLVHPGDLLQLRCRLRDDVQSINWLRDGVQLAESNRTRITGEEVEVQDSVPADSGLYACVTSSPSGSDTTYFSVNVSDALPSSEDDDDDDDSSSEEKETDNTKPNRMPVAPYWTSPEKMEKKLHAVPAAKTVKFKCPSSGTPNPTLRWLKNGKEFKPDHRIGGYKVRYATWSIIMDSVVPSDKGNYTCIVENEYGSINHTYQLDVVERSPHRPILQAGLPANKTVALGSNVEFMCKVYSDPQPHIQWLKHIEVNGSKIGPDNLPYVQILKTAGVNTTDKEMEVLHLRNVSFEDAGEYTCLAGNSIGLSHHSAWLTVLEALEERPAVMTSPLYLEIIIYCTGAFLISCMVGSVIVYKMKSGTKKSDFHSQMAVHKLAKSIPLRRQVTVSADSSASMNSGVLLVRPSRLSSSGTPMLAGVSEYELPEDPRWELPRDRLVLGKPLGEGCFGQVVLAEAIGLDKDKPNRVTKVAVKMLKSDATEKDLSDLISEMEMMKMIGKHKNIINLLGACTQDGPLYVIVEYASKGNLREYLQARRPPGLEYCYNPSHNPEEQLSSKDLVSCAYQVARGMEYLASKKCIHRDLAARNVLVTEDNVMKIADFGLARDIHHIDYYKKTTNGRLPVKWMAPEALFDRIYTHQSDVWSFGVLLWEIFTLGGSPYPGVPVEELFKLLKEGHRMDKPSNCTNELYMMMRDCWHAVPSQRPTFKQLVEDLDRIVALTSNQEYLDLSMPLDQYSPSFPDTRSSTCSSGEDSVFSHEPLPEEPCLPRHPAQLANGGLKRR
Chain of Tyrosine-protein kinase Fer (Homo sapiens) (P16591 whole entry, looked up): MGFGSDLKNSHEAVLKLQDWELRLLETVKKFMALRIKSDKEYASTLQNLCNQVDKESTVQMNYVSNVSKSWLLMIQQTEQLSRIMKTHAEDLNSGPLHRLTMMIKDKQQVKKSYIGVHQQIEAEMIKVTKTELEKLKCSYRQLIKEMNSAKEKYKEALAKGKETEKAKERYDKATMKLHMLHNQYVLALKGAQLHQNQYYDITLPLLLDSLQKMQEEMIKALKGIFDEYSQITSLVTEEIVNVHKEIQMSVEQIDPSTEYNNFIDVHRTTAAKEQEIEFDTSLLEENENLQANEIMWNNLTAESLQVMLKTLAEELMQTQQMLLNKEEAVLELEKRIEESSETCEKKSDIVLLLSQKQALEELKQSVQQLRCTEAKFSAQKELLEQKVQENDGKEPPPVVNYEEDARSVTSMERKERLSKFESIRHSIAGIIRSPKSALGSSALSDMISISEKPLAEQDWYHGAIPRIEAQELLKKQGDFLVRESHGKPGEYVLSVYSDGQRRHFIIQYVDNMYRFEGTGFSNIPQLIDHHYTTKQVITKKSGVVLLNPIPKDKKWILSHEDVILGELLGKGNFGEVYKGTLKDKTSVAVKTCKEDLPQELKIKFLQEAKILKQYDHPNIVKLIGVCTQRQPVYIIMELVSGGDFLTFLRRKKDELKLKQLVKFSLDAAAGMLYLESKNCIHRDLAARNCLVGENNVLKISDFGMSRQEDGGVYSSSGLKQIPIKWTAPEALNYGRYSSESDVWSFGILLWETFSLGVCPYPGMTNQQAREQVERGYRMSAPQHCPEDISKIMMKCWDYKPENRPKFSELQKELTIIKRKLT
Chain of Maternal embryonic leucine zipper kinase (Homo sapiens) (Q14680 whole entry, looked up): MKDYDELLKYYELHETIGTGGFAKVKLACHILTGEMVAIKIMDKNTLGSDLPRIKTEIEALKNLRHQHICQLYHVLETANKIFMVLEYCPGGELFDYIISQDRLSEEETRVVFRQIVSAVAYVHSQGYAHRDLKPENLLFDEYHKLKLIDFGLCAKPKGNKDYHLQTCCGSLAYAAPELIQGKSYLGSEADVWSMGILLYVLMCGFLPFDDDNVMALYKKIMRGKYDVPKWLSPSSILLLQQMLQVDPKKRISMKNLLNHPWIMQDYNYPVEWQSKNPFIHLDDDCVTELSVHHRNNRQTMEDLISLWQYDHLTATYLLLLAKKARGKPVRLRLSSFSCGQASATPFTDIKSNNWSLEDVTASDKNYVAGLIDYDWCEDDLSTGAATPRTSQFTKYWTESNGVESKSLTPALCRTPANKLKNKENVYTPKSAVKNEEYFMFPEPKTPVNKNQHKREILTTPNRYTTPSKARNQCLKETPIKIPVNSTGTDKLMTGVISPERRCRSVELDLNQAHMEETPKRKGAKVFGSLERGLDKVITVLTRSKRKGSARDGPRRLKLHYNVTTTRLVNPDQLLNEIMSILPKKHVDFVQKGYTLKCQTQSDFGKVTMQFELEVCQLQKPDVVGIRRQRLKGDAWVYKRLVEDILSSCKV

Cc1ccc(-c2ccc3c(ccc4sc5c(c43)NC[C@@H](C)NC5=O)n2)cn1
% of inhibition [1]: 3%

CN(C)CCOc1ccc(-c2nc(-c3ccncc3)c(-c3ccc4c(c3)CC/C4=N\O)[nH]2)cc1
% of control [2]: 100%

CN(C(=O)c1cnn2cccnc12)c1cc2c(cc1N1CCOCC1)C(=O)N(C[C@@H](F)C(C)(C)O)C2
dTM [3]: -0.3 K

CC[C@@H]1[C@H](F)C(=O)N[C@@H]1COc1nccc2cc(C(N)=O)c(OC)cc12 [ZIMLOVISERTIB]
% of inhibition [4]: -9%

O[C@H]1CC[C@H](Nc2ncc3nc(Nc4c(F)cc(F)cc4F)n([C@H]4CCOC4)c3n2)CC1
% of control [5]: 100%

CN(C)C/C=C/C(=O)Nc1ccc(C(=O)N2CCCC(Nc3ncc(Cl)c(-c4c[nH]c5ccccc45)n3)C2)cc1 (stereo not drawn)
% of control [6]: 14%

N#Cc1cccc(-c2c[nH]c3ncnc(N4CCOCC4)c23)c1
% of inhibition [7]: 13% | % of control [8]: 92%
